According to article PMC9574867, “Discovery and Characterization of Synthesized and FDA-Approved Inhibitors of Clostridial and Bacillary Collagenases” (Journal of Medicinal Chemistry, 2022):
≈ marks a conversion by molar mass, not a printed value. Entries after “also recorded” stand apart in the source; their conditions may differ.

Columns and labels:
MMP-8 = target: MMP-8; set-up: method as in PMID 22529049, PMID 12217351, PMID 12217351; settings: known inhibitors, Figure 1a; cited from earlier work
ColQ1-CU [1] = target: T1, ColQ1-CU (Bacillus cereus, UniProt B9J3S4); assay: biochemical; set-up: species or system B. cereus strain Q1
T1 sequence (B9J3S4 94-765 limits assumed): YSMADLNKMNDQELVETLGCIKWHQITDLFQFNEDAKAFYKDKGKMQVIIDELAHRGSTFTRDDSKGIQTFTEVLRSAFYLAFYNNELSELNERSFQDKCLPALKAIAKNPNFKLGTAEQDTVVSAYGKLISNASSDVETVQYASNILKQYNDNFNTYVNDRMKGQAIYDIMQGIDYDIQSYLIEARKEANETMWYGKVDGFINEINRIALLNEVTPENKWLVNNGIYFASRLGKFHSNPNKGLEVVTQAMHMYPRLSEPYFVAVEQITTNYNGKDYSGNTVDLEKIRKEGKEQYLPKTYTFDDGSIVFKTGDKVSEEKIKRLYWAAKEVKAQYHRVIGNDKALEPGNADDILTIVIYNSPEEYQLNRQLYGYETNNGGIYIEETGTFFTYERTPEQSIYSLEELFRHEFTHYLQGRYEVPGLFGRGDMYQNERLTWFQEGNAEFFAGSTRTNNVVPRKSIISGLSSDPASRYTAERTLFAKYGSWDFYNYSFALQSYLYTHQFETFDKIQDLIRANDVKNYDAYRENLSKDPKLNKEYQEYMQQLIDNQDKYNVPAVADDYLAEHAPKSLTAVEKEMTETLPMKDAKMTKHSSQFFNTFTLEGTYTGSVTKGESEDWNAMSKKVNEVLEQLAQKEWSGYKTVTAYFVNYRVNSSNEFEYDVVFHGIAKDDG

ColH-PD [2] = target: T2, ColH-PD (Hathewaya histolytica, UniProt Q46085); assay: biochemical; format: biochemical, C. histolyticum
T2 sequence (Q46085 331-721 limits assumed): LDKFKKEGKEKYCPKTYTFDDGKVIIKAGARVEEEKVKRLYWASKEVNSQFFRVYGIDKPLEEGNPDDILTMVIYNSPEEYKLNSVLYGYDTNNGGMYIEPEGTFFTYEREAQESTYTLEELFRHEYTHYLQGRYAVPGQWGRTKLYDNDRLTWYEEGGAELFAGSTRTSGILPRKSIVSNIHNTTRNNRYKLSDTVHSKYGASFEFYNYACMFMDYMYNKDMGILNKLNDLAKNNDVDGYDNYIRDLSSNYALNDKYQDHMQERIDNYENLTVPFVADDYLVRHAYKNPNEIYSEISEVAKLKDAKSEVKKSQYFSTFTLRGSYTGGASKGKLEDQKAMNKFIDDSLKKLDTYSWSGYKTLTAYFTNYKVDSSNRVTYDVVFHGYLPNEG

ColG-CU = ColG-CU (Hathewaya histolytica, UniProt Q9X721); assay: biochemical; format: biochemical, C. histolyticum
ColG-CU, sequence (Q9X721 111-786): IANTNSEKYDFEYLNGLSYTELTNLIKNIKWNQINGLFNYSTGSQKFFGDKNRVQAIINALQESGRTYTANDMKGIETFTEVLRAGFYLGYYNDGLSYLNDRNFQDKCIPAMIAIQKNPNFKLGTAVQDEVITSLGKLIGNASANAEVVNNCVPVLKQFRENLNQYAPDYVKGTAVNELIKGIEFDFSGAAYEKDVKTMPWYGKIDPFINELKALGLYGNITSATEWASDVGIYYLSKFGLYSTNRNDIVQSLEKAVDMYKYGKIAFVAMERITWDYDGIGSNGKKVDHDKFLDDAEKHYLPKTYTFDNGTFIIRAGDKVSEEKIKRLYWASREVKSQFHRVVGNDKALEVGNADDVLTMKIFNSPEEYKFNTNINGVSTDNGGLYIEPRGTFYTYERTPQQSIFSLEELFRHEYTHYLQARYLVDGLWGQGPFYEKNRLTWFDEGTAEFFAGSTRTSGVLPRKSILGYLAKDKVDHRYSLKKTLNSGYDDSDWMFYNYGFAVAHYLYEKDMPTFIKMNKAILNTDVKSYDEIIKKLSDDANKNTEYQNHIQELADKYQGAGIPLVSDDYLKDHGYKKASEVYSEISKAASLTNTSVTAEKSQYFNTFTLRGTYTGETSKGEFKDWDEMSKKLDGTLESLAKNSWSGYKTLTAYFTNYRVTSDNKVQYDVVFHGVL

ColA-CU [3] = target: T3, ColA-CU (Bacillus cereus, UniProt Q81BJ6); assay: biochemical; format: biochemical, B. cereus strain ATCC14579
T3 sequence (Q81BJ6 93-764): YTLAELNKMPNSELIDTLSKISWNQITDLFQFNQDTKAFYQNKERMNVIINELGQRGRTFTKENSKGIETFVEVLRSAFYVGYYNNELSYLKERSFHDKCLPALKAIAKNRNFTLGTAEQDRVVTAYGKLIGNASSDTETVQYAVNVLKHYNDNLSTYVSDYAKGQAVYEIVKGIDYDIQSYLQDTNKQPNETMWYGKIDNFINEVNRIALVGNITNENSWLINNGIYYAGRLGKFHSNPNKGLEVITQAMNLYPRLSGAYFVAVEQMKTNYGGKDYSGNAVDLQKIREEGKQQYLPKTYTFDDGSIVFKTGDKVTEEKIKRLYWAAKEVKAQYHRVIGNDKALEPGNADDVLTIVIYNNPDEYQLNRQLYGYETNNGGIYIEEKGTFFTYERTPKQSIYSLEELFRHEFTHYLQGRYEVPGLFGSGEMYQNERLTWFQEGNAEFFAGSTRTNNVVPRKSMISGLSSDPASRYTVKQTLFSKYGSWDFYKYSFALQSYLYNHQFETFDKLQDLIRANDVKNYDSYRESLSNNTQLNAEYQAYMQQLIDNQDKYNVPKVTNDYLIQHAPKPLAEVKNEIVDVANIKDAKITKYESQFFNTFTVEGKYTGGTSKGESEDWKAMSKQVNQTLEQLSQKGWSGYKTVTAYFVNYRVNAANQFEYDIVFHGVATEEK

MMP-1 = target: T4, MMP-1 (Homo sapiens, UniProt P03956); assay: MMP inhibition assay, MMP-1; format: biochemical
T4 construct: catalytic domains of three human MMPs; purchased Sigma-Aldrich
T4 sequence (P03956 98-276 limits assumed): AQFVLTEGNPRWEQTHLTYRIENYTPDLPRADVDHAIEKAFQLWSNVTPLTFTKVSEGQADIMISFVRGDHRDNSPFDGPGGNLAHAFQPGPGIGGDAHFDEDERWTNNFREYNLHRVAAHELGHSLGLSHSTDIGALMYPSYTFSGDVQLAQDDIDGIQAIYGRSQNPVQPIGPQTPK
Method: (§1) To assess the selectivity of the compounds over human MMPs and on other bacterial collagenases, selected compounds were tested against ColG-CU and ColH-PD from C. histolyticum and ColA-CU from B. cereus strain ATCC14579. In addition, the compounds were tested on catalytic domains of three human MMPs, which are characterized by different depths of the S1′ binding pocket (MMP-1 (shallow), −2 (intermediate), and −3 (deep)). They were also tested against other important human off-targets, which are involved in gene expression and the processing of TNF-α; these include HDAC-3, -8, TACE (ADAM-17),[33],[34] and COX-1.
(§2) The MMP inhibition assay (Sigma-Aldrich, Saint Louise, MO) was performed as previously reported and in accordance with the manufacturer’s instructions. The fluorescence signals were measured in a CLARIOstar plate reader (BMG LABTECH, Ortenberg, Germany) at a concentration of 100 μM.

MMP-2 = target: T5, MMP-2 (Homo sapiens, UniProt P08253); assay: MMP inhibition assay, MMP-2; format: biochemical
T5 construct: catalytic domains of three human MMPs; purchased Sigma-Aldrich
T5 sequence (P08253 110-444 limits assumed): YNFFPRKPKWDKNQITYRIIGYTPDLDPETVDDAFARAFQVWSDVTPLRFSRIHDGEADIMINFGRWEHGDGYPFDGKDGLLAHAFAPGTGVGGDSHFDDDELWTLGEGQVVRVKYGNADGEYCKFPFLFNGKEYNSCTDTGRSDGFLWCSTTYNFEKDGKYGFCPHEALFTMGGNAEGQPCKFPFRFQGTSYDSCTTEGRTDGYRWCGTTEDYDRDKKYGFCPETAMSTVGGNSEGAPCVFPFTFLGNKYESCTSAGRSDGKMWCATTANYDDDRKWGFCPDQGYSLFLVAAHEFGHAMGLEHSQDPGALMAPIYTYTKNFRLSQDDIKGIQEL
Method: as §1, §2

MMP-3 = target: T6, MMP-3 (Homo sapiens, UniProt P08254); assay: MMP inhibition assay, MMP-3; format: biochemical
T6 construct: catalytic domains of three human MMPs; purchased Sigma-Aldrich
T6 sequence (P08254 100-272 limits assumed): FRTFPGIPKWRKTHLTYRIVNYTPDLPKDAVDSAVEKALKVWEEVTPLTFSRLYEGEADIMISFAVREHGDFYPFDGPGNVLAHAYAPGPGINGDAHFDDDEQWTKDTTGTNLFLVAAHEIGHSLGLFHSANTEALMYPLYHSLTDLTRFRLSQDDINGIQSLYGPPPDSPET
Method: as §1, §2

HDAC-3 = HDAC-3 (Homo sapiens, UniProt O15379); assay: Human off-target inhibition, HDAC-3; format: biochemical
HDAC-3, sequence (O15379 whole entry): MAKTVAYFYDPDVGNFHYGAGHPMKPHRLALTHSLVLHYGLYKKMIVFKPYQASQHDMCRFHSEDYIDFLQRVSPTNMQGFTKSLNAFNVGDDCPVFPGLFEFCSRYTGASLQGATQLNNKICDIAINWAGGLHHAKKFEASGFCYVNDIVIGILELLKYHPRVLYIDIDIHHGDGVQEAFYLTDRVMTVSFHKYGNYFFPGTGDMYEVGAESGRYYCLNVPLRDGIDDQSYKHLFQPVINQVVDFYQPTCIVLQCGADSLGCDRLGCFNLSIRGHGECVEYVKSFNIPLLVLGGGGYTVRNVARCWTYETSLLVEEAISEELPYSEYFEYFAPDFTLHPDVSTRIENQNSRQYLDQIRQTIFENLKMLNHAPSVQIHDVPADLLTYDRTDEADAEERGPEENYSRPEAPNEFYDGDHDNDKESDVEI
HDAC-3, sequence (Q9Y618 395-489 partner limits assumed): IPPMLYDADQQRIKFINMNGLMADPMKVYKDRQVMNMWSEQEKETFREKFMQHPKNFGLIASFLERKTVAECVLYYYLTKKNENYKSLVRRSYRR
Method: as §1

HDAC-8 = target: T7, HDAC-8 (Homo sapiens, UniProt Q9BY41); assay: Human off-target inhibition, HDAC-8; format: biochemical
T7 sequence (Q9BY41 1-377): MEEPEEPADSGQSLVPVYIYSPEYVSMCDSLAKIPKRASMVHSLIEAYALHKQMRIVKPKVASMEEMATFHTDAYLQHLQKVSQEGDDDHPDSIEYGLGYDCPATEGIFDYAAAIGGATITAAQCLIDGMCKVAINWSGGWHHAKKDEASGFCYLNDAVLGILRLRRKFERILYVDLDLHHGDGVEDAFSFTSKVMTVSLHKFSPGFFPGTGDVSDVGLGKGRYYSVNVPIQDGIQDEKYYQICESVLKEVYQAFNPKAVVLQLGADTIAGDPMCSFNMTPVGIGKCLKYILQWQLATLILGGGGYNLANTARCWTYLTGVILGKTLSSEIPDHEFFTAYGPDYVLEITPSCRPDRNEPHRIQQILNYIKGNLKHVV
Method: as §1

TACE (ADAM-17) = TACE (ADAM-17) (Homo sapiens, UniProt P78536); assay: Human off-target inhibition, TACE; format: biochemical
TACE (ADAM-17), sequence (P78536 215-824): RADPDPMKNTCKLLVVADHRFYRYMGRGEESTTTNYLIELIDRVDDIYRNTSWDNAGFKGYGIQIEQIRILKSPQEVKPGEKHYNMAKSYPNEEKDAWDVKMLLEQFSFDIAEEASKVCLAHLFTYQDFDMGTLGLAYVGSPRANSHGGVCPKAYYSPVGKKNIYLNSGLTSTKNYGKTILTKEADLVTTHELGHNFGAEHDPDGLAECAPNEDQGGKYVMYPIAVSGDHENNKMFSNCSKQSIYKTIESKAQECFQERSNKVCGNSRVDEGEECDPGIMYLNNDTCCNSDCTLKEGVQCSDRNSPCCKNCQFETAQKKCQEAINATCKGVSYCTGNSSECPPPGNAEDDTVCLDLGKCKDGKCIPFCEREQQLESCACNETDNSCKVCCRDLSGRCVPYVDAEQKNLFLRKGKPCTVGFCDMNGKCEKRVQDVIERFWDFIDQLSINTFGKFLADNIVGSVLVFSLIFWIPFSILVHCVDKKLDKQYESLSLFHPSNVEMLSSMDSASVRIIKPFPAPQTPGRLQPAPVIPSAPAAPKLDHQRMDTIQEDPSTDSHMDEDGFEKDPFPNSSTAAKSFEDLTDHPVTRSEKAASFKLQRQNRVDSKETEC
Method: as §1

B. cereus AH187 = assay: B. cereus growth inhibition assay; format: cell-based; settings: Bacillus cereus, AH187; BHI medium, 37 °C, 48 h, 200–3 μM; read-out: MIC50 (µM) AH187
ColQ1-FL = ColQ1-FL (Bacillus cereus, UniProt B9J3S4); format: biochemical; settings: 1 mg/mL Col I, 50 ng ColQ1-FL, SDS-PAGE
ColQ1-FL, sequence (B9J3S4 94-965 limits assumed): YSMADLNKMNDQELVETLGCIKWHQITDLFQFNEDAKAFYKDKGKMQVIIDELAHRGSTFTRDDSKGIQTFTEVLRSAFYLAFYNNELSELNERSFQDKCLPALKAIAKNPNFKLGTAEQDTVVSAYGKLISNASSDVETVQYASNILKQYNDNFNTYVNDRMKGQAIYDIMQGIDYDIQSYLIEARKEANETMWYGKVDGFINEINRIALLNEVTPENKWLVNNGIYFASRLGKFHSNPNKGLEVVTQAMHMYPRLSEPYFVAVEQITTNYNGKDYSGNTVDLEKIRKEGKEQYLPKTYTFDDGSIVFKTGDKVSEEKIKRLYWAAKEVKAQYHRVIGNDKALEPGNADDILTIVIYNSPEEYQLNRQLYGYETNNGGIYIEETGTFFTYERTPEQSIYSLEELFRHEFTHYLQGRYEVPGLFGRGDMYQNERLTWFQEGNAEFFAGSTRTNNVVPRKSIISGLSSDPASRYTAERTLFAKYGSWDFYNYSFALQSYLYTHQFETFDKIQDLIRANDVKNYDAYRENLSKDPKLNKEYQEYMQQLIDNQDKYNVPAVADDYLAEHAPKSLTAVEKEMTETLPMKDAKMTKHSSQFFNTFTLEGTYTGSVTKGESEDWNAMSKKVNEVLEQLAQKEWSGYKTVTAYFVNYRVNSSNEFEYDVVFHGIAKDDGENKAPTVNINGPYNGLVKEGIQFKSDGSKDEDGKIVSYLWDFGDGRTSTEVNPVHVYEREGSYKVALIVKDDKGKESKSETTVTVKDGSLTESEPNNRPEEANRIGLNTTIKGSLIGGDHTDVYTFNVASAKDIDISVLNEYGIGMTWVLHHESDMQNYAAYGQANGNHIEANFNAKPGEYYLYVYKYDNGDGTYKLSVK

[4] = system: B. cereus collagenases released in the NHDF infection model; format: cell-based, B. cereus AH187
[5] = system: NHDF cells infected with B. cereus; assay: NHDF infection model, cell morphology/attachment and fibrillar collagen (picrosirius red); format: cell-based, human; settings: B. cereus infection, 5 h
ColQ1-CU [6] = target: T1, ColQ1-CU; format: biochemical, B. cereus; settings: rapid dilution
ColA-CU [7] = target: T3, ColA-CU; format: biochemical, B. cereus; settings: rapid dilution
ColH-PD [8] = target: T2, ColH-PD; format: biochemical, C. histolyticum
[9] = Stability of 27 with LC-MS in DMEM medium; format: physicochemical; settings: 200 μM in DMEM, 37 °C, 5 h, 5% CO2, LC-MS
Method: We also examined the hydroxamate compounds 27, 28, 29, 31, 32, and 33. […] Intrigued by the results of the hydroxamate compounds, we investigated their stability with LC-MS in the conditions of the NHDF infection model to obtain a potential explanation for the observed findings. We used 27 as a representative example for this compound class.
After the incubation, 2 μL of the compound was transferred to LC-MS vials containing 200 μL of acetonitrile and LC-MS spectra were measured. Three controls were included: (i) 27 in DMEO, (ii) 27 in DMEM without incubation, and (iii) DMEM medium.

in vitro [10] = settings: human, HepG2 cells (hepatocellular carcinoma)
in vitro [11] = settings: human, HEK293 cells (embryonal kidney)
in vitro [12] = settings: human, NHDF cells (normal human dermal fibroblasts)
in vitro [13] = settings: dog, MDCK II cells (Madin–Darby canine kidney II)

CC(NC(=O)C(Cc1ccccc1)NC(=O)NS(=O)(=O)c1ccc(F)cc1)C(=O)Nc1nnc(S)s1 (stereo not shown) [Compound 3]
Ki (MMP-8): 0.1 µM

CC(=O)Nc1ccccc1OCc1cn(CCNC(=O)C(CC(C)C)C(=O)NO)nn1 (stereo not shown) [Compound 27, N-[2-[4-[(2-Acetamidophenoxy)methyl]triazol-1-yl]ethyl]-2-(hydroxycarbamoyl)-4-methyl-pentanamide]
IC50 (ColQ1-CU [1]): 1.2 ± 0.1 µM
Ki (ColQ1-CU [1]): 0.1 ± 0.02 µM
inhibition at 100 µM (ColQ1-CU [1]; read-out: % Inhibition (ColQ1-CU) Mean): 97 ± 2%
Ki (ColH-PD [2]): 11.6 ± 0.4 µM
inhibition at 100 µM (ColH-PD [2]; 100 μM, read-out: Percent inhibition of ColH-PD): 84 ± 2%
Ki (ColG-CU): 31 ± 1 µM
inhibition at 100 µM (ColG-CU; 100 μM, read-out: Percent inhibition of ColG-CU): 71 ± 7%
Ki (ColA-CU [3]): 3.4 ± 4 µM
inhibition at 100 µM (ColA-CU [3]; 100 μM, read-out: Percent inhibition of ColA-CU): 93 ± 2%
IC50 (MMP-1): > 100 µM
IC50 (MMP-2): > 100 µM
IC50 (MMP-3): > 100 µM
IC50 (HDAC-3): > 100 µM
IC50 (HDAC-8): > 100 µM
IC50 (TACE (ADAM-17)): > 100 µM
MIC50 (B. cereus AH187): 200 µM (≈ 86.5 µg/mL)
Concentration above which Col I chains were maintained (ColQ1-FL): > 0.8 µM
Inhibitory effect on gelatinolytic activity of secreted collagenases [4]: no inhibitory effect on the collagenase in the zymography at all tested concentrations; also recorded: no inhibition of the collagenase in the gelatin zymography was detected
Effect on cell morphology and ECM collagen content of infected NHDF cells [5]: neither able to rescue cell morphology nor able to maintain the collagen content of the ECM
Reversibility of inhibition, ColQ1-CU (ColQ1-CU [6]): rapidly reversible inhibitors
Reversibility of inhibition, ColA-CU (ColA-CU [7]): rapidly reversible inhibitors
Reversibility of inhibition, ColH (ColH-PD [8]): rapidly reversible inhibitors
Stability under NHDF infection assay conditions [9]: no compound degradation; also recorded: confirmed, however, the stability
IC50 (in vitro [10]): > 100 µM
IC50 (in vitro [11]): > 100 µM
IC50 (in vitro [12]): > 200 µM
IC50 (in vitro [13]): > 200 µM
